{"source": "patent US6630310B1", "about": "“Assay for binding between carbohydrate and glycolipid” (Biopolymer Engineering Pharmaceutical, Inc., priority 1996, dated 2003)", "key": {"[1]": {"experiment": "Competition of ^3H-PGG-Glucan binding to lactosyl ceramide in 96-well plate assay (FIGS. 14, 15)", "set-up": "species or system bovine", "conditions": "FIGS. 14 and 15", "description": "FIG. 14 is a graph of the comparison of underivatized, aqueous soluble β(1-3)-glucan and single helix competition of ^3H-underivatized, aqueous soluble β(1-3)-glucan binding in three assay formats. Underivatized, aqueous soluble β(1-3)-glucan or single helix glucan was used at designated concentrations to compete for ^3H-underivatized, aqueous soluble β(1-3)-glucan binding to lactosyl ceramide (LacCer) in a 96-well plate (triangles), or to lactosyl ceramide in reconstituted membranes (squares), or to human leukocyte membranes (circles). Open symbols represent underivatized, aqueous soluble β(1-3) glucan, and closed symbols represent single helix. Maximum competition was assigned at the highest concentration of underivatized, aqueous soluble β(1-3)-glucan used as competitor in each type of assay.\nFIG. 15 is a graphic illustration of data showing that underivatized, aqueous soluble β(1-3) glucan and high molecular weight underivatized, aqueous soluble β(1-3) glucan (Network) compete more effectively for ^3H-underivatized, aqueous soluble β(1-3)-glucan binding to lactosyl ceramide in a 96-well plate assay than do single helix or laminarin. […]\nLactosyl ceramide or the sample to be measured was suspended in ethanol. […] The plate was incubated at 60° C. for 5 minutes, then supernatants were removed and counted."}, "[2]": {"test_system": "human leukocyte membranes", "experiment": "Direct binding of radioactively labeled underivatized, aqueous soluble β(1-3)-glucan to human leukocyte membranes (time course, concentration-dependence, Scatchard)", "protocol": "Bound radioactively labeled underivatized, aqueous soluble β(1-3)-glucan was separated from unbound ligand by centrifugation through a double layer density gradient, and the membrane pellet was solubilized and radioactivity determined. Equilibrium binding was achieved after 60 minutes at 37° C. at a concentration of 1 μg/ml radioactively labeled underivatized, aqueous soluble β(1-3)-glucan (FIG. 1).\nMembrane-associated radioactivity was determined following centrifugation of the reaction mixture through a sucrose/oil density gradient as described in the Examples. Specific binding was calculated by subtracting non-specific binding from total binding. […]\nMembranes were diluted to 2 to 5 mg/ml in HBSS with and without 1 mg/ml BSA. […] The tubes were spun at 15,000×g for 4-5 minutes and the tips containing the membrane pellets were removed, incubated in 300 μl SOLVABLE™ (New England Nuclear, Boston, Mass.) overnight at 50° C. to dissolve the pellet, and then radioactivity determined by liquid scintillation counting. No radioactivity was found in the oil layer in the absence of added membranes. […]"}, "[3]": {"test_system": "neutrophil (human blood leukocyte) membranes", "experiment": "^3H-PGG-Glucan binding to neutrophil membranes", "conditions": "PMN versus mononuclear cells", "protocol": "The distribution of the receptor for underivatized, aqueous soluble β(1-3)-glucan across various cell lines and human tissues was determined by assessing the binding of radioactively labeled underivatized, aqueous soluble β(1-3)-glucan to membranes derived from a variety of cell types (see Table 2). The amount of radioactively labeled underivatized, aqueous soluble β(1-3)-glucan binding is expressed as mean±standard deviation in ng/mg membrane protein. The non-specific binding is defined as radioactively labeled underivatized, aqueous soluble β(1-3)-glucan bound in the presence of greater than 100-fold excess unlabeled underivatized, aqueous soluble β(1-3)-glucan. The specific binding is determined by (Total Binding)−(Non-Specific Binding), with the number in parenthesis in Table 2 representing the percent total binding. Quantitation of complement receptor 3 (CR3) was carried out by flow cytometry using fluorescently-labeled anti-CD11b, and data are expressed as mean channel fluorescence (MCF) in arbitrary fluorescence units; background fluorescence for isotype controls were subtracted. The neutrophil sample was greater than 95 percent neutrophils by histology. […]\nMembranes were diluted to 2 to 5 mg/ml in HBSS with and without 1 mg/ml BSA. […] No radioactivity was found in the oil layer in the absence of added membranes. […]"}, "[4]": {"experiment": "Competition of ^3H-PGG-Glucan binding to GalCer II", "protocol": "Lactosyl ceramide or the sample to be measured was suspended in ethanol. Aliquots as specified were added in triplicate to the wells of a 96-well plate and air dried. The following components were premixed, then 100 μL was added to each well: saline (10 μL) or unlabelled, underivatized, aqueous soluble β(1-3)-glucan (10 μL of a 10 mg/ml stock), ^3H-underivatized, aqueous soluble β(1-3) glucan (10 μL of a 10 μg/ml stock), and HBSS (80 μL). Plates were incubated at 37° C. for 1.5 to 2 hours, then supernatants were removed from each well and discarded. Wells were rinsed with HBSS (200 μL) and SOLVABLE™ (100 μL) was added. The plate was incubated at 60° C. for 5 minutes, then supernatants were removed and counted."}}}
{"substance": "underivatized, aqueous soluble β(1-3)-glucan [PGG-Glucan]", "values": [{"measurement": "competition for ^3H-underivatized, aqueous soluble β(1-3)-glucan binding to LacCer in the 96-well plate assay (in words)", "setting": "[1]", "value": "competes"}, {"measurement": "binding to its receptor at room temperature or below (in words)", "setting": "[2]", "value": "does not bind"}, {"measurement": "specific binding of human peripheral blood PMN relative to mononuclear cells", "setting": "[3]", "value": "five to ten"}, {"measurement": "% Control Binding", "setting": "[4]; ligand 0.01 mg hexose/mL", "value": 23.6, "unit": "%"}, {"measurement": "% Control Binding", "setting": "[4]; ligand 0.1 mg hexose/mL", "value": 3.0, "unit": "%"}, {"measurement": "% Control Binding", "setting": "[4]; ligand 1.0 mg hexose/mL", "value": 1.4, "unit": "%"}]}
